{
  "source": "patent US20080090900A1",
  "about": "“ANTIBIOTIC BUSHRIN” (University of Karachi, priority 2006, published 2008)",
  "key": {"[1]": {"test_system": "Shewanella putrifacians", "assay": "disc diffusion technique", "type": "cell-based", "conditions": "150 μg disc, read-out: Sensitivity (width of inhibition zone)"}, "[2]": {"test_system": "Hafnia alvei", "type": "cell-based"}, "[3]": {"test_system": "Hafnia alvei", "assay": "disc diffusion technique", "type": "cell-based"}, "[4]": {"test_system": "Escherichia coli", "type": "cell-based"}, "[5]": {"test_system": "Shewanella putrifacians", "type": "cell-based"}, "[6]": {"test_system": "Clostridium sporogenes", "assay": "microbe, parasite or virus in culture", "type": "cell-based"}, "[7]": {"test_system": "Escherichia coli", "assay": "disc diffusion technique", "type": "cell-based", "conditions": "150 μg disc, read-out: Sensitivity (width of inhibition zone)"}, "[8]": {"test_system": "MSSA methicillin sensitive staphylococcus aureus", "type": "cell-based"}, "[9]": {"test_system": "Serratia marcescens", "type": "cell-based"}, "[10]": {"test_system": "Enterobacter faecalis", "type": "cell-based"}, "[11]": {"test_system": "Bacillus subtilis", "type": "cell-based"}, "[12]": {"test_system": "Enterococcus faecium", "type": "cell-based"}, "[13]": {"assay": "Heat stability test (antibacterial activity by disk diffusion after heating)", "type": "physicochemical", "procedure": "[…] After the treatment, the liquid in each tube was evaporated completely and Compound 1 was re-dissolved in methanol to give an appropriate concentration. Then antibacterial activity was evaluated in triplicate by the disk diffusion method."}, "[14]": {"test_system": "Staphylococcus aureus (ATCC33591)", "assay": "Time kill experiment"}, "[15]": {"test_system": "Klebsiella aerogenes", "assay": "disc diffusion technique", "type": "cell-based", "conditions": "150 μg disc"}, "[16]": {"test_system": "Bacillus cereus", "assay": "disc diffusion technique", "type": "cell-based", "conditions": "150 μg disc, read-out: Sensitivity (width of inhibition zone)"}, "[17]": {"test_system": "Vibrio harveyi", "type": "cell-based"}, "[18]": {"test_system": "Vibrio harveyi", "assay": "disc diffusion technique", "type": "cell-based", "conditions": "150 μg disc, read-out: Sensitivity (width of inhibition zone)"}, "[19]": {"test_system": "Clostridium sporogenes", "assay": "microbe, parasite or virus in culture", "type": "cell-based", "conditions": "Clostridium sporogenes, read-out: Sensitivity (width of inhibition zone)"}, "[20]": {"test_system": "Clostridium perfringens", "type": "cell-based"}, "[21]": {"test_system": "Candida albicans", "assay": "disc diffusion technique", "type": "cell-based"}, "[22]": {"test_system": "Bacillus cereus", "type": "cell-based"}, "[23]": {"test_system": "Proteus morgani", "assay": "disc diffusion technique", "type": "cell-based", "conditions": "150 μg disc, read-out: Sensitivity (width of inhibition zone)"}, "[24]": {"test_system": "Bacillus steriothermophilus", "type": "cell-based"}, "[25]": {"test_system": "MSSA methicillin sensitive staphylococcus aureus", "assay": "disc diffusion technique", "type": "cell-based"}, "[26]": {"test_system": "Salmonella typhi", "assay": "disc diffusion technique", "type": "cell-based"}, "[27]": {"test_system": "Bacillus subtilis", "assay": "Complete killing of Bacillus subtilis", "type": "cell-based"}, "[28]": {"test_system": "Enterococcus faecalis", "type": "cell-based"}, "[29]": {"test_system": "Gram-positive bacteria", "type": "cell-based", "procedure": "(§1) The minimum inhibitory concentration (MIC) of Compound 1 was determined by the standard microdilution method described in the national committee for clinical laboratory standards (National Committee for Clinical Laboratory Standards, 1997. Method for dilution antimicrobial susceptibility test for bacteria, that grow aerobically, 4th ed., p, 1-29. National Committee for Clinical Laboratory Standards) using Muller Hinton broth medium (Oxoid) incubated at 37° C. for 24 h. […] This substance was slightly active against Streptococcus sp for which the MIC was 200 μg/ml."}, "[30]": {"test_system": "Gram negative bacteria", "type": "cell-based", "procedure": "as §1"}, "[31]": {"test_system": "Bacillus subtilis", "assay": "disc diffusion technique", "type": "cell-based"}, "[32]": {"test_system": "Serratia marcescens", "assay": "disc diffusion technique", "type": "cell-based"}, "[33]": {"test_system": "Enterococcus faecalis", "assay": "disc diffusion technique", "type": "cell-based", "conditions": "150 μg disc, read-out: Sensitivity (width of inhibition zone)"}, "[34]": {"test_system": "Staphylococcus aureus", "assay": "Phase contrast microscopy", "type": "cell-based", "conditions": "60 μl/ml, immediately after treatment", "procedure": "(§2) An exponential phase culture (A600, 0.05) of Bacillus subtilis and Staphylococcus aureus grown in Luria broth was treated with 50 μl/ml of Compound 1 for Bacillus subtilis and 60 μl/ml for Staphylococcus aureus and slides were immediately made in 1% agarose using 4 μl of Compound 1 treated cultures, time lapse images were obtained under phase contrast microscope, particular care was taken to minimize the sample exposure to UV light, image grabbing were performed essentially as described by Edwards and Errrington. (Edwards, D. H., and Errington, J.(1997). The Bacillus subtilis […] protein targets to the division septum and control the site specificity of cell division. Mol Microbiol 24:905-915)."}, "[35]": {"test_system": "Bacillus subtilis", "assay": "Phase contrast microscopy", "type": "cell-based", "conditions": "50 μl/ml, immediately after treatment", "procedure": "as §2"}, "[36]": {"test_system": "Salmonella typhi", "type": "cell-based", "conditions": "Salmonella enterica"}, "[37]": {"conditions": "150 μg disc, read-out: Sensitivity (width of inhibition zone)"}},
  "note": "Entries after “also recorded” stand apart in the source; their conditions may differ. Where two headings read alike, the source gives them in different places.",
  "data": [
    {"compound": "Cc1cc(O)c2c(c1)C=CC(C)(c1ccoc1)C2", "note": "(centres unmarked) [Compound 1, 7-(3-furyl)-3,7-dimethyl-7,8-dihydro-1-naphthalenol]", "values": [
      {"measurement": "zone of inhibition at 150 µg/disc", "setting": "[1]", "value": "10 to 15", "unit": "mm"},
      {"measurement": "MIC", "setting": "[2]", "value": 100, "unit": "µg/mL"},
      {"measurement": "MIC", "setting": "[2]; Hafnia alvei, read-out: MIC", "value": 100, "unit": "µg/mL"},
      {"measurement": "antibacterial activity", "setting": "[3]", "value": "active; also recorded: activity"},
      {"measurement": "zone of inhibition at 150 µg/disc", "setting": "[3]; [37]", "value": "15 to 20", "unit": "mm"},
      {"measurement": "MIC", "setting": "[4]", "value": 75, "unit": "µg/mL"},
      {"measurement": "MIC", "setting": "[5]", "value": 75, "unit": "µg/mL"},
      {"measurement": "MIC", "setting": "[6]", "value": 125, "unit": "µg/mL"},
      {"measurement": "zone of inhibition at 150 µg/disc", "setting": "[7]", "value": "10 to 15", "unit": "mm"},
      {"measurement": "MIC", "setting": "[8]", "value": 60, "unit": "µg/mL"},
      {"measurement": "MIC", "setting": "[9]", "value": 60, "unit": "µg/mL"},
      {"measurement": "MIC", "setting": "[9]; Serratia marcescens, read-out: MIC", "value": 60, "unit": "µg/mL"},
      {"measurement": "MIC", "setting": "[10]", "value": 100, "unit": "µg/mL"},
      {"measurement": "MIC", "setting": "[11]", "value": "50 to 60", "unit": "µg/mL"},
      {"measurement": "MIC", "setting": "[11]; Bacillus subtilis, read-out: MIC", "value": 50, "unit": "µg/mL"},
      {"measurement": "MIC", "setting": "[12]", "value": 50, "unit": "µg/mL"},
      {"measurement": "antibacterial activity after heat treatment", "setting": "[13]; at 200° C.", "value": "completely lost"},
      {"measurement": "antibacterial activity after heat treatment", "setting": "[13]; treatment at 120° C.", "value": "significantly reduced"},
      {"measurement": "concentration able to kill completely", "setting": "[14]; Staphylococcus aureus", "value": 125, "unit": "µg/mL"},
      {"measurement": "exposure time after which number of viable bacterial cells decreased", "setting": "[14]; at MIC 50 μg/ml", "value": 8, "unit": "h"},
      {"measurement": "course of viable bacterial cell count", "setting": "[14]; at two and four times the MIC", "value": "decreased drastically"},
      {"measurement": "time after which viable count decreased drastically", "setting": "[14]; four times the MIC", "value": 1, "unit": "h"},
      {"measurement": "killing rate compared with test antibiotics", "setting": "[14]; same concentration and length of exposure, vs vancomycin, nisin, tetracycline, ampicillin", "value": "much higher"},
      {"measurement": "bactericidal activity", "setting": "[14]; time kill, Staphylococcus aureus", "value": "rapidly bactericidal"},
      {"measurement": "time after which viable count decreased drastically", "setting": "[14]; two times the MIC", "value": 2, "unit": "h"},
      {"measurement": "Sensitivity (width of inhibition zone)", "setting": "[15]", "value": "−"},
      {"measurement": "zone of inhibition at 150 µg/disc", "setting": "[16]", "value": "18 to 30", "unit": "mm"},
      {"measurement": "MIC", "setting": "[17]", "value": 75, "unit": "µg/mL"},
      {"measurement": "zone of inhibition at 150 µg/disc", "setting": "[18]", "value": "18 to 30", "unit": "mm"},
      {"measurement": "zone of inhibition at 150 µg/disc", "setting": "[19]", "value": "10 to 15", "unit": "mm"},
      {"measurement": "MIC", "setting": "[20]", "value": 100, "unit": "µg/mL"},
      {"measurement": "activity", "setting": "[21]", "value": "not active"},
      {"measurement": "Sensitivity (width of inhibition zone)", "setting": "[21]; 150 μg disc", "value": "−"},
      {"measurement": "MIC", "setting": "[22]", "value": 60, "unit": "µg/mL"},
      {"measurement": "zone of inhibition at 150 µg/disc", "setting": "[23]", "value": "18 to 30", "unit": "mm"},
      {"measurement": "MIC", "setting": "[24]", "value": "50 to 60", "unit": "µg/mL"},
      {"measurement": "MIC", "setting": "[24]; Bacillus steriothermophilus, read-out: MIC", "value": 50, "unit": "µg/mL"},
      {"measurement": "antibacterial activity", "setting": "[25]; Staphylococcus aureus MSSA", "value": "active; also recorded: activity"},
      {"measurement": "zone of inhibition at 150 µg/disc", "setting": "[25]; Staphylococcus aureus, 150 μg disc, MSSA, read-out: Sensitivity (width of inhibition zone)", "value": "18 to 30", "unit": "mm"},
      {"measurement": "zone of inhibition at 150 µg/disc", "setting": "[26]; Salmonella enterica, TYPHI, read-out: Sensitivity (width of inhibition zone)", "value": "15 to 20", "unit": "mm"},
      {"measurement": "antibacterial activity", "setting": "[26]; disc diffusion, Salmonella typhi", "value": "active; also recorded: activity"},
      {"measurement": "concentration that completely killed", "setting": "[27]", "value": 100, "unit": "µg/mL"},
      {"measurement": "MIC", "setting": "[28]", "value": 50, "unit": "µg/mL"},
      {"measurement": "MIC", "setting": "[29]", "value": "50 to 75", "unit": "µg/mL"},
      {"measurement": "MIC", "setting": "[30]", "value": "75 to 125", "unit": "µg/mL"},
      {"measurement": "antibacterial activity", "setting": "[31]", "value": "active; also recorded: activity"},
      {"measurement": "zone of inhibition at 150 µg/disc", "setting": "[31]; [37]", "value": "18 to 30", "unit": "mm"},
      {"measurement": "zone of inhibition at 150 µg/disc", "setting": "[32]; 150 μg disc, Serratia marcescens, read-out: Sensitivity (width of inhibition zone)", "value": "15 to 20", "unit": "mm"},
      {"measurement": "antibacterial activity", "setting": "[32]; Serratia marcesens", "value": "active; also recorded: activity"},
      {"measurement": "zone of inhibition at 150 µg/disc", "setting": "[33]", "value": "18 to 30", "unit": "mm"},
      {"measurement": "morphological change of treated cells (time lapse images)", "setting": "[34]", "value": "complete lyses"},
      {"measurement": "morphological change of treated cells (time lapse images)", "setting": "[35]", "value": "uniform and consistent decrease in size of cells"},
      {"measurement": "MIC", "setting": "[36]", "value": 75, "unit": "µg/mL"}
    ]}
  ]
}
